We go through three compounds from ChEMBL document CHEMBL6134798, “Classifying covalent protein binders by their targeted binding site” (Bioorg Med Chem Lett, 2025).

Assay [1] concerns the target Epidermal growth factor receptor (Homo sapiens, UniProt P00533). The experiment in a line: Inhibition of EGFR (unknown origin).
Assay [2] has as its system K562. The experiment in a line: Growth inhibition of human K562 cells. It counts as functional.
Assay [3] has as its target T1, Secernin-3 (Homo sapiens, UniProt Q0VDG4).
T1 sequence (Q0VDG4 whole entry): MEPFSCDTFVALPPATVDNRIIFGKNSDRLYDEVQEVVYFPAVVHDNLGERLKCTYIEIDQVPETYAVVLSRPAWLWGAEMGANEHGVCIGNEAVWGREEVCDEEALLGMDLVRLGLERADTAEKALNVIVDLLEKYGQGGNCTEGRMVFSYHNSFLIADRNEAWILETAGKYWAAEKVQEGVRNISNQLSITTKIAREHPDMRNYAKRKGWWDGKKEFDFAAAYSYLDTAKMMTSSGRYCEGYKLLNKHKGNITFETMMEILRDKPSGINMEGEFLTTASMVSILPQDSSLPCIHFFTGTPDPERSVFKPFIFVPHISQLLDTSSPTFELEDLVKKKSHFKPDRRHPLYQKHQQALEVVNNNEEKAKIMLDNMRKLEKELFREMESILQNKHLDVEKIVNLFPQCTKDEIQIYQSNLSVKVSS
The experiment in a line: Inhibition of full length human SCRN3 transfected in HEK293T cells. It counts as cell-based.

Epidermal growth factor receptor, sequence (P00533 whole entry): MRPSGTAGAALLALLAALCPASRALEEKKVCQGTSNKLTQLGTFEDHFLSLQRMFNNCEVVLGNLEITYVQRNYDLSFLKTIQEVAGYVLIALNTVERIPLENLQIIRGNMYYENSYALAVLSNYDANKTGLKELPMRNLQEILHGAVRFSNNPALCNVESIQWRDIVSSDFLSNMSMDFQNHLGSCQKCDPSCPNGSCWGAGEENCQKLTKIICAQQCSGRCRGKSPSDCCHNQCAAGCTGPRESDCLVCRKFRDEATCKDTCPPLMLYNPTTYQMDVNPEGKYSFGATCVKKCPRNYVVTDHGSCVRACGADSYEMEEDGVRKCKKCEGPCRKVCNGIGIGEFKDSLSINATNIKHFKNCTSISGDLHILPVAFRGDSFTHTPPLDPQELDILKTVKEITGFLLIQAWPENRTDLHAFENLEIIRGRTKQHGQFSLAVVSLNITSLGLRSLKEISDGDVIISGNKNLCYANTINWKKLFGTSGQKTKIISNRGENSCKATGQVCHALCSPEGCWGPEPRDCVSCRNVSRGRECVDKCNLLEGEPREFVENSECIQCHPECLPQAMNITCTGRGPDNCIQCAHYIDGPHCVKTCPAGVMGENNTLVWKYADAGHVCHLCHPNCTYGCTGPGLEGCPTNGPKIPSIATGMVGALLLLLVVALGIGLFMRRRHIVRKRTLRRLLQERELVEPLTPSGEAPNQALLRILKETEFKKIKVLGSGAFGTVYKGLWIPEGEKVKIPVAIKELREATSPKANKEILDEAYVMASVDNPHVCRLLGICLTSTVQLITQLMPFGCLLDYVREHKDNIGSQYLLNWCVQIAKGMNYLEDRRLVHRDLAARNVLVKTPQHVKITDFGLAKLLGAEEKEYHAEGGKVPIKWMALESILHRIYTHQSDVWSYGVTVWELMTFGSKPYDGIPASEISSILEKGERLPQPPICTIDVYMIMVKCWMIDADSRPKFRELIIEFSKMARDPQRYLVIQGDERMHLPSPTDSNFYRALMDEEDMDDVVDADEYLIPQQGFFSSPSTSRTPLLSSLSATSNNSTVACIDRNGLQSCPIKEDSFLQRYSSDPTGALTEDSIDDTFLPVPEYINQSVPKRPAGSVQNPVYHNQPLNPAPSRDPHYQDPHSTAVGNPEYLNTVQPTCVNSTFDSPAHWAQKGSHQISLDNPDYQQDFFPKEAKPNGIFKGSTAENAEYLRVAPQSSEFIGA

A word on the IC50: it is the concentration that gives 50% inhibition. Low readings indicate greater potency in that assay, high ones weaker potency in that assay. As to `C=CC(=O)N1CCN(c2ncnc3c(F)c(-c4c(O)cccc4F)c(Cl)cc23)CC1`, the midpoint of inhibition in assay [1], the IC50, lay at 0.12 µM. In other words, the sub-micromolar range.

In general, GI50 refers to the concentration giving 50% growth inhibition. A lower GI50 goes with more potent growth inhibition. As for `COc1cc(O)c(C=O)cc1-c1c[nH]c2ncc(-c3cncc(C(=O)N(C)C)c3)cc12`, the GI50 in assay [2] was 0.0556 µM. This counts as double-digit nanomolar.

`NNc1ccc2ccccc2c1` returned an IC50 in assay [3] of 0.2 µM. This lies in the sub-micromolar range.
